From patent US20100273189A1, “NON SEPARATION ASSAYS WITH SELECTIVE SIGNAL INHIBITORS” (BECKMAN COULTER, INC., priority 2009, published 2010)

Key:
Type in all cases: biochemical
[1] = tested on: cTnI; test: cTnI detection via heterogeneous assay
Protocol: This example describes a method of detecting cTnI (Cardiac Troponin I) using an AK-Abl particle prepared e.g., as set forth in Example 3 and a HRP-Ab2 conjugate prepared e.g., as set forth in Example 4 where Ab2 represents an antibody to cTnI. The effect of ascorbic acid on background signal was investigated.
HRP-Ab2 conjugate suspensions were prepared at 1.0 μg/mL and contained either 0 or 1 mM ascorbic acid. Samples consisted of human serum samples with the indicated mounts of cTnI added or no cTnI as a control. The test procedure consisted of adding 20 μL of 1.0 μg/mL HRP-Ab2 conjugate and 30 μL of MES buffer containing 1 mg/mL BSA and 1 mg/mL MIgG, pH 5.9 to the reaction vessel. Next, 25 μL of patient serum sample was added, followed by 25 μL of 1.0 mg/mL AK-Abl conjugate suspension thereby obtaining 100 μL of total volume in the reaction vessel. After 15.2 minutes, 100 μL of trigger solution A was added to the reaction vessel and the light intensity was recorded on the modified DxI instrument. Chemiluminescence intensity is expressed in Relative Light Units (RLU).

[2] = tested on: TnI; test: Effect of trigger pH: TnI on LodeStars with ascorbate
Protocol: B. In order to determine the effect of trigger solution pH on a variety of test assay systems, a series of experiments were conducted varying trigger pH. […] In the tables, two pH values are listed for each data set. The first is the pH of the buffer sample added to the reaction mixture. The second is the resulting pH of the final reaction mix.

[3] = tested on: cTnI; test: cTnI assay with various magnetic particles, without and with ascorbic acid 150 μM
From the text: The effectiveness of ascorbic acid in improving assay performance in microparticle formats was investigated using a cTnI analyte with various magnetic particles. Magnetic particles evaluated included LodeStars PMP, latex PMP and carboxylate-modified polystyrene latex PMP. “Lot B Magnetic Particle” are 6.2 μm diameter carboxyl PMPs (Bangs Laboratories, Fishers, Ind.). “Lot D Magnetic Particle” are 8.1 μm diameter carboxyl PMPs (Bangs Laboratories). “Lot F Latex Particle” are 3.1 μm diameter carboxyl PMPs (Seradyn Products, Thermo-Fisher, Indianapolis, Ind.). “CML PMP” are […] diameter carboxylate modified latex particles (Invitrogen, Carlsbad, Calif.). LodeStars PMP were labeled with AK4 and biotin by EDC coupling and overcoated with streptavidin following the general protocol of Example 3. Lots B, D, and F and CML PMP were labeled with AK-BSA-biotin according to Example 1. The particles were then coated with streptavidin and bound to biotin-labeled anti-cTnI.
In an initial experiment, the cTnI assay was conducted without ascorbic acid in the reaction mix.
In this case, LodeStars particles retain much more specific signal than the other particle types, even while the background decreases almost […].

[4] = with ascorbic acid, S1, cTnI 172 pg/mL
[5] = with ascorbic acid, S2, cTnI 366 pg/mL
[6] = with ascorbic acid, S3, cTnI 1368 pg/mL
[7] = with ascorbic acid, S4, cTnI 11136 pg/mL
[8] = with ascorbic acid, S5, cTnI 27922 pg/mL
[9] = with ascorbic acid, S6, cTnI 106000 pg/mL
[10] = Control (7.5), S1, TnI 172 ng/ml
[11] = Control (7.5), S2, TnI 366 ng/ml
[12] = Control (7.5), S3, TnI 1368 ng/ml
[13] = Control (7.5), S4, TnI 11136 ng/ml
[14] = Control (7.5), S5, TnI 27922 ng/ml
[15] = Control (7.5), S6, TnI 10600 ng/ml
[16] = pH 6.0 (5.9), S1, TnI 172 ng/ml
[17] = pH 6.0 (5.9), S2, TnI 366 ng/ml
[18] = pH 6.0 (5.9), S3, TnI 1368 ng/ml
[19] = pH 6.0 (5.9), S4, TnI 11136 ng/ml
[20] = pH 6.0 (5.9), S5, TnI 27922 ng/ml
[21] = pH 6.0 (5.9), S6, TnI 10600 ng/ml
[22] = pH 7.0 (7.1), S1, TnI 172 ng/ml
[23] = pH 7.0 (7.1), S2, TnI 366 ng/ml
[24] = pH 7.0 (7.1), S3, TnI 1368 ng/ml
[25] = pH 7.0 (7.1), S4, TnI 11136 ng/ml
[26] = pH 7.0 (7.1), S5, TnI 27922 ng/ml
[27] = pH 7.0 (7.1), S6, TnI 10600 ng/ml
[28] = pH 8.0 (7.9), S1, TnI 172 ng/ml
[29] = pH 8.0 (7.9), S2, TnI 366 ng/ml
[30] = pH 8.0 (7.9), S3, TnI 1368 ng/ml
[31] = pH 8.0 (7.9), S4, TnI 11136 ng/ml
[32] = pH 8.0 (7.9), S5, TnI 27922 ng/ml
[33] = pH 8.0 (7.9), S6, TnI 10600 ng/ml
[34] = pH 9.0 (8.7), S1, TnI 172 ng/ml
[35] = pH 9.0 (8.7), S2, TnI 366 ng/ml
[36] = pH 9.0 (8.7), S3, TnI 1368 ng/ml
[37] = pH 9.0 (8.7), S4, TnI 11136 ng/ml
[38] = pH 9.0 (8.7), S5, TnI 27922 ng/ml
[39] = pH 9.0 (8.7), S6, TnI 10600 ng/ml

O=C1O[C@H]([C@@H](O)CO)C(O)=C1O [Ascorbic Acid, Ascorbic acid]
background signal ([1]; in the presence of ascorbic acid, in words): significant reduction in background signal | RLU ([1]; second column pair (with 1 mM ascorbic acid in conjugate), S0, cTnI 0 pg/mL): 422 RLU | RLU [1, 4]: 1320 RLU | S/S0 [1, 4]: 3.1 | RLU [1, 5]: 2778 RLU | S/S0 [1, 5]: 6.6 | RLU [1, 6]: 10254 RLU | S/S0 [1, 6]: 24.3 | RLU [1, 7]: 108628 RLU | S/S0 [1, 7]: 257.4 | RLU [1, 8]: 325082 RLU | S/S0 [1, 8]: 770.3 | RLU [1, 9]: 2380772 RLU | S/S0 [1, 9]: 5641.6 | Ave RLUs ([2]; Control (7.5), S0, TnI 0 ng/ml): 543 RLU | Ave RLUs [2, 10]: 1,013 RLU | S/S0 [2, 10]: 1.9 | Ave RLUs [2, 11]: 1,815 RLU | S/S0 [2, 11]: 3.3 | Ave RLUs [2, 12]: 5,981 RLU | S/S0 [2, 12]: 11.0 | Ave RLUs [2, 13]: 53,524 RLU | S/S0 [2, 13]: 98.6 | Ave RLUs [2, 14]: 155,889 RLU | S/S0 [2, 14]: 287.3 | Ave RLUs [2, 15]: 1,235,103 RLU | S/S0 [2, 15]: 2276.0 | Ave RLUs ([2]; pH 6.0 (5.9), S0, TnI 0 ng/ml): 273 RLU | Ave RLUs [2, 16]: 379 RLU | S/S0 [2, 16]: 1.4 | Ave RLUs [2, 17]: 600 RLU | S/S0 [2, 17]: 2.2 | Ave RLUs [2, 18]: 1,452 RLU | S/S0 [2, 18]: 5.3 | Ave RLUs [2, 19]: 11,579 RLU | S/S0 [2, 19]: 42.4 | Ave RLUs [2, 20]: 32,519 RLU | S/S0 [2, 20]: 119.0 | Ave RLUs [2, 21]: 216,379 RLU | S/S0 [2, 21]: 791.6 | Ave RLUs ([2]; pH 7.0 (7.1), S0, TnI 0 ng/ml): 519 RLU | Ave RLUs [2, 22]: 1,031 RLU | S/S0 [2, 22]: 2.0 | Ave RLUs [2, 23]: 1,703 RLU | S/S0 [2, 23]: 3.3 | Ave RLUs [2, 24]: 5,695 RLU | S/S0 [2, 24]: 11.0 | Ave RLUs [2, 25]: 57,599 RLU | S/S0 [2, 25]: 111.1 | Ave RLUs [2, 26]: 145,140 RLU | S/S0 [2, 26]: 279.8 | Ave RLUs [2, 27]: 938,075 RLU | S/S0 [2, 27]: 1808.6 | Ave RLUs ([2]; pH 8.0 (7.9), S0, TnI 0 ng/ml): 699 RLU | Ave RLUs [2, 28]: 1,319 RLU | S/S0 [2, 28]: 1.9 | Ave RLUs [2, 29]: 2,359 RLU | S/S0 [2, 29]: 3.4 | Ave RLUs [2, 30]: 8,048 RLU | S/S0 [2, 30]: 11.5 | Ave RLUs [2, 31]: 72,016 RLU | S/S0 [2, 31]: 103.1 | Ave RLUs [2, 32]: 225,113 RLU | S/S0 [2, 32]: 322.2 | Ave RLUs [2, 33]: 1,574,655 RLU | S/S0 [2, 33]: 2253.8 | Ave RLUs ([2]; pH 9.0 (8.7), S0, TnI 0 ng/ml): 413 RLU | Ave RLUs [2, 34]: 716 RLU | S/S0 [2, 34]: 1.7 | Ave RLUs [2, 35]: 1,097 RLU | S/S0 [2, 35]: 2.7 | Ave RLUs [2, 36]: 3,999 RLU | S/S0 [2, 36]: 9.7 | Ave RLUs [2, 37]: 36,424 RLU | S/S0 [2, 37]: 88.1 | Ave RLUs [2, 38]: 107,020 RLU | S/S0 [2, 38]: 258.9 | Ave RLUs [2, 39]: 855,956 RLU | S/S0 [2, 39]: 2070.9 | background decrease ([3]; ascorbic acid 150 μM prior to addition of trigger, LodeStars particles): ~300% | assay sensitivity ([3]; ascorbic acid in the assay reaction mixture, in words): significantly improves the assay sensitivity
